Experimental data taken from publication PMC11661376, “A2B adenosine receptor-triggered intracellular calcium mobilization: Cell type-dependent involvement of Gi, Gq, Gs proteins and protein kinase C” (Research Square, 2024).

Target: T1, P2Y1 receptor (P2Y1R) (Homo sapiens, UniProt P47900)
T1 construct: gene P2RY1; native receptor in T24 and HEK293 cells
Test: agonist-induced intracellular Ca2+ mobilization (FLIPR) in T24 cells
Type: cell-based

T1 sequence (P47900 whole entry): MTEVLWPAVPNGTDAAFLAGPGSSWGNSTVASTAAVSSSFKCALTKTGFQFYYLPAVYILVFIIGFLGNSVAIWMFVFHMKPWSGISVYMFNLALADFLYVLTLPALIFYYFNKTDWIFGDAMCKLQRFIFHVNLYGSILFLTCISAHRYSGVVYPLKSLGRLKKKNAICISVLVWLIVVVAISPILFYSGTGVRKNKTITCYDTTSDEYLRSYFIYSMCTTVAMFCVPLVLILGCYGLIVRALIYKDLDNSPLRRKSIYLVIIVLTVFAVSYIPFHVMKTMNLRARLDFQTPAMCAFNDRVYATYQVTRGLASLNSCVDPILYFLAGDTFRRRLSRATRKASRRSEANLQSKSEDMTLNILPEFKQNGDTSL

EC50: 1.38 ± 0.26 nM
SMILES: CSc1nc(N)c2ncn([C@H]3[C@H](O)[C@H](O)[C@]4(COP(=O)(O)OP(=O)(O)O)C[C@H]34)c2n1 [MRS2365]
